{
  "source": "patent US6767569B1",
  "about": "“Surface decontamination of cooked sausage and processed meat and poultry products” (priority 1999, dated 2004)",
  "key": {"Listeria monocytogenes": {"test_system": "Listeria monocytogenes", "assay": "Dip treatment of Listeria monocytogenes-inoculated frankfurters, quantitative plating on MOX agar", "format": "cell-based", "procedure": "A five-strain mixture of Listeria monocytogenes was used for purposes of inoculation. To prepare this mixture, five strains of L. monocytogenes were grown individually in tryptic soy broth (TSB), for 48±2 h at 30° C. Equivalent aliquots of broth from each strain were then combined in a sterile test tube to achieve a mixed inoculum containing approximately equal populations of each of the five strains. The mixed culture was diluted as appropriate using 0.1% peptone diluent to achieve a final mixed inoculum with a cell density of approximately 10,000 colony forming units (cfu)/ml.\nPackages of commercially prepared beef frankfurter sausages (“franks”) were obtained from a local retail outlet. The packages were stored at 4° C. until use (no more than 24 hours). Immediately prior to testing, the franks were removed from the commercial packaging and placed on a sterile surface in a biological safety cabinet. The franks were oriented on the surface such that no franks were in contact with each other. Using a micropipette, each individual frank (except for those used as controls) was inoculated with 0.1 ml of the previously prepared mixed inoculum with a target inoculation level of 1,000 cfu/frank. A sterile bent rod was used to spread the inoculum over the frank surface as evenly as possible. Inoculated franks were allowed to remain undisturbed on the sterile surface for at least 5 minutes prior to treatment with the decontaminant solution. Three franks were inoculated per treatment to be evaluated, one frank being tested without inoculation.\nThe peracetic acid used in the evaluation was obtained as a 35% concentrate under the trade name STERIS 20™ Sterilant Concentrate from STERIS Corporation (Mentor, Ohio). The concentrate was used without the buffers or other additives supplied by the manufacturer. The concentrate was diluted to appropriate nominal concentrations (100, 500, and 1000 ppm). Approximately 1 L of each concentration to be evaluated was prepared in sanitized 2 L, plastic containers. Additionally, 1 L of a control treatment, namely sterile distilled water (0 ppm peracetic acid), was also prepared in a 2 L container. Each of these four concentrations was evaluated using two exposure times, 2 and 10 seconds. Therefore, a total of eight treatments (four peracetic acid concentrations (0, 100, 500, and 1000 ppm) at two exposure times (2 and 10 seconds) were evaluated in this study. Each test was carried out two or more times for establishing reproducibility.\nAll peracetic acid treatments were performed inside a biological safety cabinet. Inoculated franks were dipped into the peracetic acid treatment solution (or distilled water for the 0 ppm samples) and allowed to remain submerged for either 2 or 10 seconds. Sterile utensils were employed to remove the franks from the treatment solution and transfer them to a sterile distilled water rinse. Franks were then submerged in a sterile water rinse and remained submerged for 2 or 10 seconds (i.e., the same time as they were exposed to the peracetic acid solution) and were removed with sterile utensils. Immediately after removal from the sterile water rinse, the franks were placed on a sterile surface and allowed to air dry for 5 minutes.\nFollowing air drying, one frank per treatment was placed in a sterile Stomacher bag and analyzed quantitatively for residual L. monocytogenes populations. The remaining two franks were retained in sterile Stomacher bags and used for qualitative analysis, if necessary (in the event no surviving cells were detected using quantitative procedures).\nTo determine the number of surviving L. monocytogenes cells (quantitative evaluation), one frank per treatment was analyzed. The weight of the frank was determined and an appropriate volume of 0.1% peptone diluent added to achieve a 1:5 dilution. These samples were homogenized for 2 minutes using a Stomacher Lab Blender. […]"}, "Listeria": {"test_system": "Listeria", "assay": "Further tests: peracetic acid sprayed over the frankfurters", "format": "cell-based, Listeria monocytogenes", "details": "2000 ppm sprayed over the frankfurters for 30 seconds to one minute"}, "E. coli": {"test_system": "E. coli", "format": "cell-based", "details": "E. coli; 35 °C, 24 hrs", "procedure": "(§1) Each strain was subcultured on tryptic soy agar (TSA, DIFCO, Detroit, Mich.) slants and stored at 4° C. Strains were individually transferred into 100 mL of sterile 2× BHI (DIFCO, Detroit, Mich.) and incubated at 35° C. for 24 hr. to reach ca. 10^9 colony forming units/mL (CFU/mL). Then, 25 mL of each strain of E. coli was transferred into a sterile bottle (mixture X), and 25 mL of each strain of each strain of Salmonella spp. was transferred into a sterile bottle (mixture Y). Mixtures X and Y were maintained separately throughout the test.\n(§2) Serial dilutions were made using Butterfields' Phosphate Buffer (BPB, Sigma, St. Louis, Mo.) in 1 mL aliquots prior to inoculation. BPB was prepared as a stock solution by adding 34 g Of KH2PO4 to 500 mL of distilled water. The pH was adjusted to 7.2, and the solution was brought to a volume of 1 L. The BPB stock was autoclaved for 20 min. at 121° C. and 15 lbs. of pressure. […] For glacial acetic acid (U.S.P.-F.C.C., J. T. Baker, Phillipsburg, N.J.), starting concentrations and serial dilutions were 50%, 25%, 12.5%, 6.25%, 3.12%, 1.56%, 0.78%, 0.39%, and a control (no treatment, buffer and culture). […] For peracetic acid 35.0% (STERIS 20™, STERIS Corporation, Mentor, Ohio), starting concentrations and serial dilutions were 17.5%, 8.75%, 4.38%, 2.19%, 1.09%, 0.55%, 0.30%, 0.14%, 0.07%, 0.03%, and a control. For liquid smoke (Hickory Specialties, Brentwood, Tenn.) starting concentrations and serial dilutions were 50%, 25%, 12.5%, 6.25%, 3.12%, 1.56%, 0.78%, 0.39%, and a control. Dilutions were prepared with deionized water.\n(§3) The test tubes were incubated at 35° C. for 24 hrs. and turbidity was evaluated using McFarland equivalence standards, to study the bacteriostatic properties of the diluted solutions. In addition, each dilution was plated to evaluate the bactericidal properties of, the diluted solutions. Using a 1 μL sterile loop, each concentration and control for either microorganism mixture was streaked on plate count agar (PCA, DIFCO, Detroit, Mich.). A selective agar was also used for each mixture, eosine methylene blue agar (EMB, DIFCO, Detroit, Mich.) for E. coli and xylose lysine decarboxylase agar (XLD, DIFCO, Detroit,Mich.) for Salmonella spp. All plates were incubated for 24 hrs. at 35° C. and were inspected for growth or no growth."}, "Salmonella spp.": {"test_system": "Salmonella spp.", "format": "cell-based", "details": "35 °C, 24 hrs", "procedure": "as §1, §2, §3"}},
  "note": "Several values for one entry are separate records, joined by “and”; a condition that tells them apart may be missing. Equal values may be shown once. Marks after values point to notes of the source that are not given here.",
  "data": [
    {"smiles": "CC(=O)OO", "note": "[peracetic acid]", "values": [
      {"measurement": "After treatment (CFU/frank)", "setting": "Listeria monocytogenes; PAA 100 ppm (actual 114 ppm), 2 sec exposure followed by 2 sec deionized water rinse", "value": "180 CFU/frank and <90* CFU/frank and 90 CFU/frank"},
      {"measurement": "After treatment (CFU/frank)", "setting": "Listeria monocytogenes; PAA 100 ppm (actual 114 ppm), 2 sec exposure followed by 2 sec deionized water rinse, listed as PAA", "value": "at least 90 CFU/frank"},
      {"measurement": "After treatment (CFU/frank)", "setting": "Listeria monocytogenes; PAA 100 ppm (actual 114 ppm), 10 sec exposure followed by 10 sec deionized water rinse, target inoculation 1,000 CFU/frank", "value": "<90* CFU/frank and 180 CFU/frank"},
      {"measurement": "After treatment (CFU/frank)", "setting": "Listeria monocytogenes; PAA 100 ppm (actual 114 ppm), 10 sec exposure followed by 10 sec deionized water rinse, target inoculation 1,000 CFU/frank, listed as PAA", "value": "at least 90 CFU/frank"},
      {"measurement": "After treatment (CFU/frank)", "setting": "Listeria monocytogenes; PAA 500 ppm (actual 572 ppm), 2 sec exposure followed by 2 sec deionized water rinse", "value": "<90* CFU/frank and 90 CFU/frank"},
      {"measurement": "After treatment (CFU/frank)", "setting": "Listeria monocytogenes; PAA 500 ppm (actual 572 ppm), 2 sec exposure followed by 2 sec deionized water rinse, listed as PAA", "value": "< 90", "unit": "CFU/frank"},
      {"measurement": "After treatment (CFU/frank)", "setting": "Listeria monocytogenes; PAA 500 ppm (actual 572 ppm), 10 sec exposure followed by 10 sec deionized water rinse", "value": "<90* CFU/frank"},
      {"measurement": "After treatment (CFU/frank)", "setting": "Listeria monocytogenes; PAA 500 ppm (actual 572 ppm), 10 sec exposure followed by 10 sec deionized water rinse, listed as PAA", "value": "less than the detection limit of the quantitative plating procedure"},
      {"measurement": "After treatment (CFU/frank)", "setting": "Listeria monocytogenes; PAA 1000 ppm (actual 1146 ppm), 2 sec exposure followed by 2 sec deionized water rinse", "value": "<90* CFU/frank"},
      {"measurement": "After treatment (CFU/frank)", "setting": "Listeria monocytogenes; PAA 1000 ppm (actual 1146 ppm), 2 sec exposure followed by 2 sec deionized water rinse, listed as PAA", "value": "< 90", "unit": "CFU/frank"},
      {"measurement": "After treatment (CFU/frank)", "setting": "Listeria monocytogenes; PAA 1000 ppm (actual 1146 ppm), 10 sec exposure followed by 10 sec deionized water rinse", "value": "<90* CFU/frank"},
      {"measurement": "After treatment (CFU/frank)", "setting": "Listeria monocytogenes; PAA 1000 ppm (actual 1146 ppm), 10 sec exposure followed by 10 sec deionized water rinse, listed as PAA", "value": "< 90", "unit": "CFU/frank"},
      {"measurement": "kill level", "setting": "Listeria", "value": "complete kill"},
      {"measurement": "MIC (%)", "setting": "E. coli", "value": "0.137% and 0.14%"},
      {"measurement": "MIC (%)", "setting": "Salmonella spp.", "value": "0.137% and 0.14%"}
    ]}
  ]
}
